Assay results: patent US6362183B1, “Aromatic sulfonyl alpha-hydroxy hydroxamic acid compounds” (G. D. Searle & Company, priority 1997, dated 2002)
Values belong to the compound of their own block, whether it stands above or below them.

What was measured:
Assay in all cases: In vitro metalloprotease inhibition, fluorogenic peptide assay
Assay type in all cases: biochemical
recombinant human MMP-1 = biological target: T1, recombinant human MMP-1 (Homo sapiens, UniProt P03956); conditions: for IC50: APMA-activated enzyme, MCA peptide substrate 4 μM, room temperature, pH 7.5; for inhibitory activity against MMP-1 (in words): discussion of Table 51
T1 construct: made in house; host or cells: transfected HT-1080 cells
T1 sequence (P03956 100-469): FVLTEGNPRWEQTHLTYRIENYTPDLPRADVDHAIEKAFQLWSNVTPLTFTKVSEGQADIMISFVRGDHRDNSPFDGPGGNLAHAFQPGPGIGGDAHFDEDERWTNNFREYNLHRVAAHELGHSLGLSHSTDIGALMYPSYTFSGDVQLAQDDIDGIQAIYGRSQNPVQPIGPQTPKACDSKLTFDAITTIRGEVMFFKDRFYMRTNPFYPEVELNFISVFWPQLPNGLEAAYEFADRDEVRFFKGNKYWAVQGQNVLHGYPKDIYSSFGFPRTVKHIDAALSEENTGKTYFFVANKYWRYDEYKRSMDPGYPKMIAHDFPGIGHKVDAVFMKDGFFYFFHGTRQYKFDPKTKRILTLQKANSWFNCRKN
Experimental: (§1) Briefly, 4-aminophenylmercuric acetate (APMA) or trypsin activated MMPs were incubated with various concentrations of the inhibitor compound at room temperature for 5 minutes.
(§2) More specifically, recombinant human MMP-13 and MMP-1 enzymes were prepared in laboratories of the assignee. MMP-13 was expressed in baculovirus as a proenzyme, and purified first over a heparin agarose column and then over a chelating zinc chloride column. The proenzyme was activated by APMA for use in the assay. MMP-1 expressed in transfected HT-1080 cells was provided by Dr. Howard Welgus of Washington University, St. Louis, Mo. The enzyme was also activated using APMA and was then purified over a hydroxamic acid column.
(§3) MCA-ProLeuGlyLeuDpaAlaArgNH^2, wherein MCA is methoxycoumarin and Dpa is 3-(2,4-dinitrophenyl)-L-2,3-diaminopropionyl alanine.
(§4) The buffer used for assays contained 100 mM Tris-HCl, 100 mM NaCl, 10 mM CaCl2 and 0.05 percent polyethyleneglycol (23) lauryl ether at a pH value of 7.5.

recombinant human MMP-13 = biological target: T2, recombinant human MMP-13 (Homo sapiens, UniProt P45452); conditions: for IC50: APMA-activated enzyme, MCA peptide substrate 4 μM, room temperature, pH 7.5; for inhibitory activity against MMP-13 (in words): discussion of Table 51
T2 construct: made in house
Experimental: as §1, §2, §3, §4

MMP-2 = biological target: T3, MMP-2 (Homo sapiens, UniProt P08253); conditions: for IC50: MCA peptide substrate 4 μM, room temperature, pH 7.5
T3 sequence (P08253 110-660): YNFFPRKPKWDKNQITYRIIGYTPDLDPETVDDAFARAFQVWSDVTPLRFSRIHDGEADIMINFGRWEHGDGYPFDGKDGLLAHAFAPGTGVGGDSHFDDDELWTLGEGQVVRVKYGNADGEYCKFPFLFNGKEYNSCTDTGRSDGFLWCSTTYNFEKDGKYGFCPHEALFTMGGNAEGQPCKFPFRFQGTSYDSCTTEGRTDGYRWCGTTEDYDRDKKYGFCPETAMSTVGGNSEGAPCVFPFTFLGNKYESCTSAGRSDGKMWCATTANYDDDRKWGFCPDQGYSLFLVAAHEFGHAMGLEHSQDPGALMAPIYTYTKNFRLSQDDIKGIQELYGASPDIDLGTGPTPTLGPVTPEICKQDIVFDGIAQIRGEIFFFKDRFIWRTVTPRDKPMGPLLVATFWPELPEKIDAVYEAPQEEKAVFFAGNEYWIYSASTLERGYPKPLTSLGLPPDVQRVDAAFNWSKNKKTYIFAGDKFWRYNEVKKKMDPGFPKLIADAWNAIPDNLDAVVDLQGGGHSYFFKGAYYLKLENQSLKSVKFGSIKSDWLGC
Experimental: as §1, §3, §4

SMILES: CC(O)(CS(=O)(=O)c1ccc(NC(=O)c2cccc(N)c2)cc1)C(=O)NO (stereo not shown) [Example 35, 3-amino-N-[4-[[2-hydroxy-3-(hydroxyamino)-2-methyl-3-oxopropyl]-sulfonyl]phenyl]benzamide]
IC50 (recombinant human MMP-1): > 10 µM
IC50 (recombinant human MMP-13): 290 nM
IC50 (MMP-2): 6.7 nM

SMILES: CC(O)(CS(=O)(=O)c1ccc(NC(=O)c2cccc(NCCCCO)c2)cc1)C(=O)NO (stereo not shown) [Example 34]
IC50 (recombinant human MMP-1): > 10 µM
IC50 (recombinant human MMP-13): 1600 nM
IC50 (MMP-2): 32.7 nM

SMILES: CC(O)(CS(=O)(=O)c1ccc(NC(=O)Nc2ccccc2)cc1)C(=O)NO (stereo not shown) [Example 15, N,2-dihydroxy-2-methyl-3-[[4-[((phenylamino)carbonyl)amino]phenyl]sulfonyl]propanamide]
IC50 (recombinant human MMP-1): > 10 µM
IC50 (recombinant human MMP-13): 3200 nM
IC50 (MMP-2): 87 nM

SMILES: CC(O)(CS(=O)(=O)c1ccc(NC(=O)c2ccc(F)c(F)c2)cc1)C(=O)NO (stereo not shown) [Example 32, 3,4-difluoro-N-[4-[[2-hydroxy-3-(hydroxyamino)-2-methyl-3-oxopropyl]sulfonyl]phenyl]benzamide]
IC50 (recombinant human MMP-1): > 10 µM
IC50 (recombinant human MMP-13): 80 nM
IC50 (MMP-2): 1.6 nM

SMILES: CCCCCc1ccc(C(=O)Nc2ccc(S(=O)(=O)CC(C)(O)C(=O)NO)cc2)cc1 (stereo not shown) [Example 14, N-[4-[[2-hydroxy-3-(hydroxyamino)-2-methyl-3-oxopropyl]sulfonyl]phenyl]pentylbenzamide]
IC50 (recombinant human MMP-1): > 10 µM
IC50 (recombinant human MMP-13): 0.5 nM
IC50 (MMP-2): < 0.1 nM

SMILES: CC(O)(CS(=O)(=O)c1ccc(NC(=O)c2cccc([N+](=O)[O-])c2)cc1)C(=O)NO (stereo not shown) [Example 33]
IC50 (recombinant human MMP-1): > 10 µM
IC50 (recombinant human MMP-13): 1600 nM
IC50 (MMP-2): 50 nM

SMILES: COc1ccc(S(=O)(=O)CC(O)C(=O)NO)cc1 (stereo not shown) [Example 8, N,2-dihydroxy-3-[(4-methoxyphenyl)sulfonyl]propanamide]
IC50 (recombinant human MMP-1): > 10 µM
inhibitory activity against MMP-1 (in words) (recombinant human MMP-1): relatively inactive
IC50 (recombinant human MMP-13): 200 nM
inhibitory activity against MMP-13 (in words) (recombinant human MMP-13): only slightly better

The next lines start with results.

IC50 (recombinant human MMP-1): > 10 µM
IC50 (recombinant human MMP-13): 316 nM
IC50 (MMP-2): 20 nM
SMILES: Cc1cccc(C(=O)Nc2ccc(S(=O)(=O)CC(C)(O)C(=O)NO)cc2)c1 (stereo not shown) [Example 30, N-[4-[[2-hydroxy-3-(hydroxyamino)-2-methyl-3-oxopropyl]sulfonyl]phenyl]-3-methylbenzamide]

IC50 (recombinant human MMP-1): > 10 µM
IC50 (recombinant human MMP-13): < 0.1 nM
IC50 (MMP-2): < 0.1 nM
SMILES: CCCCCCCOc1ccc(C(=O)Nc2ccc(S(=O)(=O)CC(C)(O)C(=O)NO)cc2)cc1 (stereo not shown) [Example 24, 4-(heptyloxy)-N-[4-[[2-hydroxy-3-(hydroxyamino)-2-methyl-3-oxopropyl]sulfonyl]phenyl]benzamide]
inhibitory activity against MMP-1 (in words) (recombinant human MMP-1): lower than could be measured in the assay
inhibitory activity against MMP-13 (in words) (recombinant human MMP-13): greater than could be measured in the assay
inhibitory activity against MMP-2 (in words) (MMP-2; discussion of Table 51): greater than could be measured in the assay

IC50 (recombinant human MMP-1): > 10 µM
IC50 (recombinant human MMP-13): 600 nM
IC50 (MMP-2): 37.2 nM
SMILES: CC(O)(CS(=O)(=O)c1ccc(NC(=O)c2cccc(Cl)c2)cc1)C(=O)NO (stereo not shown) [Example 31, 3-chloro-N-[4-[[2-hydroxy-3-(hydroxyamino)-2-methyl-3-oxopropyl]sulfonyl]phenyl]benzamide]

IC50 (recombinant human MMP-1): > 10 µM
IC50 (recombinant human MMP-13): 0.8 nM
IC50 (MMP-2): < 0.1 nM
SMILES: CCCCc1ccc(C(=O)Nc2ccc(S(=O)(=O)CC(C)(O)C(=O)NO)cc2)cc1 (stereo not shown) [Example 28, 4-butyl-N-[4-[[2-hydroxy-3-(hydroxyamino) -2-methyl-3-oxopropyl]-sulfonyl]phenyl]benzamide]

IC50 (recombinant human MMP-1): > 10 µM
IC50 (recombinant human MMP-13): 6600 nM
IC50 (MMP-2): 300 nM
SMILES: Cc1cccc(NC(=O)Nc2ccc(S(=O)(=O)CC(C)(O)C(=O)NO)cc2)c1 (stereo not shown) [Example 20, N,2-dihydroxy-2-methyl-3-[[4-[[[(3-methylphenyl)amino]carbonyl]amino]phenyl]sulfonyl]propanamide]

IC50 (recombinant human MMP-1): 8 µM
IC50 (recombinant human MMP-13): 30 nM
IC50 (MMP-2): 14.8 nM
SMILES: COCC(O)(CS(=O)(=O)c1ccc(Oc2ccccc2)cc1)C(=O)NO (stereo not shown) [Example 6, N,2-dihydroxy-2-(methoxymethyl)-3-[(4-phenoxyphenyl)sulfonyl]propanamide]
